Measurements taken from patent publication US6482948B1, “Thienopyrimidine compounds and salts thereof and process for the preparation of the same” (Nippon Soda Co., Ltd., priority 1999, dated 2002).
pEC50, pIC50: −log10 of the molar value.

Legend:
[1] = biological target: PDE 1 (Ca-calmodulin activatable PDE); assay: Phosphodiesterase inhibiting activity, PDE 1; type: biochemical; conditions: isozyme from dog heart; 1 μM [3H]-cAMP or [3H]-cGMP; read-out: Inhibition of PDE Activity: IC50 PDE 1
Procedure: (§1) Pharmacological Test Example 1: Phosphodiesterase Inhibiting Activity
(§2) Cyclic nucleotide phosphodiesterases from human platelets and from the heart and kidney of a dog were eluted by the concentration gradient method with 70 to 1000 mM of sodium acetate on DEAE-cellulose column chromatography (Whatman Co. Ltd., DE-52, φ3.2×13 cm) according to the method of Thompson and others (Thompson W. J., et al., Advances in Cyclic Nucleotide Research: 10, 69-92, 1979), and separated into isozymes. PDE 5 (cGMP specific PDE) and PDE 3 (cGMP inhibitable cAMP PDE) were separated from the platelets, PDE 1 (Ca-calmodulin activatable PDE) from the heart, and PDE 4 (cGMP non-inhibitable cAMP PDE) from the kidney. The method of Thompson, et al was partially modified to measure phosphodiesterase activities: 1 μM of [3H]-cAMP or [3H]-cGMP was decomposed with phosphodiesterase. The produced 5′-AMP or 5′-GMP was decomposed to adenosine or guanosine with a snake venom (Sigma V7000). The reaction solution was added to anion exchange resin (Bio-Rad Co. Ltd., AG1-X8). Non-adsorbed adenosine or guanosine was counted by a liquid scintillation counter. A concentration causing 50% inhibition of the enzyme activity (IC50) was calculated from concentration inhibition curves.

[2] = biological target: T1, PDE 2 (Homo sapiens, UniProt O00408); assay: Phosphodiesterase inhibiting activity, PDE 2; type: biochemical; conditions: 1 μM [3H]-cAMP or [3H]-cGMP; source of isozyme not given; read-out: Inhibition of PDE Activity: IC50 PDE 2
T1 construct: eluted by the concentration gradient method with 70 to 1000 mM of sodium acetate on DEAE-cellulose column chromatography; from tissue
T1 sequence (O00408 whole entry): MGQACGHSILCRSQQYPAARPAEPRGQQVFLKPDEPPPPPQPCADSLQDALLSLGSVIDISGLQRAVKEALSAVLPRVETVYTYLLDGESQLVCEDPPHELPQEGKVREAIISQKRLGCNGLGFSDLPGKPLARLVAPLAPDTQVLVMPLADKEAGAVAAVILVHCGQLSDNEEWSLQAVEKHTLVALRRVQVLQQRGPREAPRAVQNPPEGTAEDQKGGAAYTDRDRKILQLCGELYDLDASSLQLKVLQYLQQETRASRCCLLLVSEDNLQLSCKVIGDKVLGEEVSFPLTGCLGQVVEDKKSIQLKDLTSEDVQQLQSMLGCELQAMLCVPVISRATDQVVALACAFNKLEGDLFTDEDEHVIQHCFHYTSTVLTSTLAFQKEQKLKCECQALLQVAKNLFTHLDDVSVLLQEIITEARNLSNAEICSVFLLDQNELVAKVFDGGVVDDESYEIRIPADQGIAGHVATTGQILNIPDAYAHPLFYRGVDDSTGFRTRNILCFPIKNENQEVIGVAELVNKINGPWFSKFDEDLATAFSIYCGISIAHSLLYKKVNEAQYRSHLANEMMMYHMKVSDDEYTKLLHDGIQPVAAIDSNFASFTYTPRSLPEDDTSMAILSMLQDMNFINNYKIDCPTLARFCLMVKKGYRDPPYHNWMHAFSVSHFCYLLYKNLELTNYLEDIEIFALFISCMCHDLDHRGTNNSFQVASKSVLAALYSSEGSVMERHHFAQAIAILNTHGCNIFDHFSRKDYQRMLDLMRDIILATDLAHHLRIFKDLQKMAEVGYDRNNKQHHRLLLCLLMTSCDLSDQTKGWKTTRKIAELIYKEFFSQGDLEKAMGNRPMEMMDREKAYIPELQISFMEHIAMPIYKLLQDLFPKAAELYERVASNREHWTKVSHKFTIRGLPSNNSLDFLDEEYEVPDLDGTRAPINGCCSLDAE
Procedure: [Worded in the source for another target; this target is reported under the same test.] as §1, §2

[3] = biological target: T2, PDE 3 (cGMP inhibitable cAMP PDE) (Homo sapiens, UniProt Q14432); assay: Phosphodiesterase inhibiting activity, PDE 3; type: biochemical; conditions: isozyme from human platelets; 1 μM [3H]-cAMP or [3H]-cGMP; read-out: Inhibition of PDE Activity: IC50 PDE 3
T2 construct: from tissue; host or cells: human platelets
T2 sequence (Q14432 whole entry): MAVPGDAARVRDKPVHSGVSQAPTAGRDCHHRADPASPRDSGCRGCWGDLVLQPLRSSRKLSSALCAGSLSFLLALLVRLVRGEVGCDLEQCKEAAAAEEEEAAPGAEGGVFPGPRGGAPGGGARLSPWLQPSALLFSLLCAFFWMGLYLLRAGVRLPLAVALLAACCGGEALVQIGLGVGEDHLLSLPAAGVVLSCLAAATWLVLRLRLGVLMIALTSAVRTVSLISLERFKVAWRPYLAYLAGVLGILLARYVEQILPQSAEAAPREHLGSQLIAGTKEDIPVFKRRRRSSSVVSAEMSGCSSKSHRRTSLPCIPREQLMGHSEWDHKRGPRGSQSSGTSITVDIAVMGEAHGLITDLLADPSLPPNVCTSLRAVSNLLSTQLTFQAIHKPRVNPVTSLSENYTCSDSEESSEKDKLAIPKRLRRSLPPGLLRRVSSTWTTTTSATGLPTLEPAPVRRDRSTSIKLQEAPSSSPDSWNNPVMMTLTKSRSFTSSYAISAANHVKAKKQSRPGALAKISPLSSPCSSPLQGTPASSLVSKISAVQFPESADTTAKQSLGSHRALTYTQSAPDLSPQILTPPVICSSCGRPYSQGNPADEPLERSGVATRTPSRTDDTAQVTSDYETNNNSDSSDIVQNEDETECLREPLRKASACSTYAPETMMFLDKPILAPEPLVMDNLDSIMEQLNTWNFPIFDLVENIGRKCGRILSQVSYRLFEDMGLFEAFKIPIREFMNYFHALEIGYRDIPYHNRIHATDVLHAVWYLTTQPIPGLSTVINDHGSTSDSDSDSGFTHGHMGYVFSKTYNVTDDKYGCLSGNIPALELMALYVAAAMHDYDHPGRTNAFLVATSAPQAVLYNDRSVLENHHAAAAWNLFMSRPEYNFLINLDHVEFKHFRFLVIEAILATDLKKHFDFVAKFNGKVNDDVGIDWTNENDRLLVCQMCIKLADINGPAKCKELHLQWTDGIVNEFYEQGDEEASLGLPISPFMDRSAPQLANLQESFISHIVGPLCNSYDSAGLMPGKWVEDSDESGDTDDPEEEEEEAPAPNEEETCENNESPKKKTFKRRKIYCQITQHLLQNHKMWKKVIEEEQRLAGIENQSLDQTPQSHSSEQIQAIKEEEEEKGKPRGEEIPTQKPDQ
Procedure: as §1, §2

[4] = biological target: PDE 4 (cGMP non-inhibitable cAMP PDE); assay: Phosphodiesterase inhibiting activity, PDE 4; type: biochemical; conditions: isozyme from dog kidney; 1 μM [3H]-cAMP or [3H]-cGMP; read-out: Inhibition of PDE Activity: IC50 PDE 4
Procedure: as §1, §2

[5] = biological target: T3, PDE 5 (cGMP specific PDE) (Homo sapiens, UniProt O76074); assay: Phosphodiesterase inhibiting activity, PDE 5; type: biochemical; conditions: isozyme from human platelets; 1 μM [3H]-cAMP or [3H]-cGMP; read-out: Inhibition of PDE Activity: IC50 PDE 5
T3 construct: from tissue; host or cells: human platelets
Procedure: as §1, §2

[6] = test system: thoracic aortas; assay: Vasodilating activity, phenylephrine-contracted thoracic aorta ring preparations (Magnus method); parameters: species or system Sprague-Dawley male rats; conditions: rat thoracic aorta ring preparations contracted with 1 μM phenylephrine, 37° C., drug added cumulatively
Procedure: Pharmacological Test Example 2: Vasodilating Activity
A vasodilating activity was assessed according to the method of Ken-ichi Hirata and Mitsuhiro Yokoyama (Arteriosclerosis and Hyperlipemia Research Strategies, published by Shujunsha (Japan), pages 275-277, 1996): The thoracic aortas were extracted from Sprague-Dawley male rats (weighing 180 to 360 g). After unnecessary connective tissues were removed, the aortas were cut to 5mm-long pieces to make ring strip preparations, and assessed by the Magnus method (37° C.). A nutrient solution used was a Krebs-Henseleit solution aerated with 5% carbon dioxide gas and 95% oxygen gas. Specimens were equilibrated for about 60 minutes, and then contracted by adding 1 μM of phenylephrine. 1 μM of acetylcholine was added at the second phenylepherine-induced contraction in order to confirm an endothelial cell dependent relaxation response. At the third phenylepherine-induced contraction, a drug to test was added cumulatively, and the relaxation action was observed. Drugs to test were all dissolved in DMSO to use for the tests. The tested drugs were assessed by 50% relaxation rates (EC50) obtained from vasodilation rates to respective concentrations (the maximum relaxation was measured by adding 100 μM of papaverine).

Row | pIC50 [1] | pIC50 [2] | pIC50 [3] | pIC50 [4] | pIC50 [5] | pEC50 [6] | melting point [°C] | SMILES
1 | < 5.00 | 5.41 | < 5.00 | < 5.00 | 9.04 | 7.07 | – | COc1ccc(CNc2nc(-c3ccc4c(c3)OCO4)nc3sc4c(c23)CCN(Cc2ccccc2)C4)cc1Cl [1-1]
2 | < 5.00 | 5.57 | 5.21 | 5.70 | 8.59 | 7.72 | – | COc1ccc(CNc2nc(-c3cccnc3)nc3sc4c(c23)CCN(Cc2ccccc2)C4)cc1Cl [1-4]
3 | < 5.00 | < 5.00 | < 5.00 | 5.60 | 9.27 | 8.09 | 218 to 220 | CCOC(=O)N1CCc2c(sc3nc(-c4ccncc4)nc(NCc4ccc(OC)c(Cl)c4)c23)C1 [1-5]
4 | 5.26 | < 5.00 | < 5.00 | 5.44 | 7.30 | 7.80 | 90 to 92 | COc1ccc(CNc2nc(-c3ccco3)nc3sc4c(c23)CCN(C)C4)cc1Cl [1-6]
5 | < 5.00 | 5.70 | 5.27 | 5.43 | 8.62 | 8.02 | 118 to 120 | COc1ccc(CNc2nc(-c3ccncc3)nc3sc4c(c23)CCN(C)C4)cc1Cl [1-7]
6 | – | – | – | – | – | 8.20 | 226 to 227 | COc1ccc(CNc2nc(-c3cccnc3)nc3sc4c(c23)CCN(C(C)=O)C4)cc1Cl [1-9, 5,6,7,8-tetrahydro-4-[(3-chloro-4-methoxy)benzylamino]-7-acetyl-2-(3-pyridyl)pyrido[4′,3′:4,5]thieno[2,3-d]pyrimidine]
7 | – | – | – | – | – | 8.68 | – | CCOC(=O)N1CCc2c(sc3nc(-c4cccnc4)nc(NCc4ccc(OC)c(Cl)c4)c23)C1 [1-15, 5,6,7,8-tetrahydro-4-[(3-chloro-4-methoxy)benzylamino]-7-ethoxycarbonyl-2-(3-pyridyl)pyrido[4′,3′:4,5]thieno[2,3-d]pyrimidine]
8 | < 5.00 | < 5.00 | ≤ 5.00 | < 5.00 | 7.48 | 7.72 | 155 to 157 | COC(=O)CNC(=O)c1nc(NCc2ccc(OC)c(Cl)c2)c2c3c(sc2n1)CN(C(C)C)CC3 [1-54]
9 | < 5.00 | < 5.00 | < 5.00 | 5.70 | 7.21 | 6.74 | – | CCOc1ccccc1NC(=O)c1nc(NCc2ccc(OC)c(Cl)c2)c2c3c(sc2n1)CN(C(C)C)CC3 [1-55]
10 | < 5.00 | < 5.00 | < 5.00 | < 5.00 | 9.26 | 8.57 | – | COc1ccc(CNc2nc(C(=O)Nc3nccs3)nc3sc4c(c23)CCN(C)C4)cc1Cl [1-57]
11 | < 5.00 | < 5.00 | < 5.00 | < 5.00 | 8.68 | 8.29 | – | COc1ccc(CNc2nc(C(=O)Nc3ccncc3)nc3sc4c(c23)CCN(C)C4)cc1Cl [1-58]
12 | < 5.00 | 5.21 | 5.12 | 5.47 | 7.11 | 8.12 | – | COc1ccc(CNc2nc(C(=O)Nc3ccc(-n4ccnc4)cc3)nc3sc4c(c23)CCN(C)C4)cc1Cl [1-59]
13 | < 5.00 | < 5.00 | < 5.00 | 5.44 | 7.85 | 8.12 | – | COc1ccc(CNc2nc(C(=O)Nc3ccccc3Cl)nc3sc4c(c23)CCN(C)C4)cc1Cl [1-60]
14 | < 5.00 | < 5.00 | < 5.00 | < 5.00 | 9.04 | 8.06 | – | COc1ccc(CNc2nc(C(=O)Nc3ccc(Cl)cc3)nc3sc4c(c23)CCN(C)C4)cc1Cl [1-61, 5,6,7,8-tetrahydro-4-[(3-chloro-4-methoxy)benzylamino]-7-methylpyrido[4′,3′:4,5]thieno[2,3-d]pyrimidine-2-N-(4-chlorophenyl)carboxamide]
15 | < 5.00 | < 5.00 | < 5.00 | < 5.00 | 8.62 | 8.14 | – | COc1ccc(NC(=O)c2nc(NCc3ccc(OC)c(Cl)c3)c3c4c(sc3n2)CN(C)CC4)cc1 [1-62]
16 | < 5.00 | < 5.00 | < 5.00 | < 5.00 | 9.42 | 8.32 | – | COc1ccc(CNc2nc(C(=O)NC3CCCCC3)nc3sc4c(c23)CCN(C)C4)cc1Cl [1-63]
17 | < 5.00 | < 5.00 | < 5.00 | < 5.00 | 7.04 | 6.59 | 168 to 170 | COC(=O)c1nc(NCc2ccc(OC)c(Cl)c2)c2c3c(sc2n1)CN(Cc1ccccc1)CC3 [1-65]
18 | < 5.00 | < 5.00 | < 5.00 | < 5.00 | 9.41 | 7.09 | – | COc1ccc(CNc2nc(C(=O)Nc3ccccc3)nc3sc4c(c23)CCN(Cc2ccccc2)C4)cc1Cl [1-67]
19 | < 5.00 | < 5.00 | < 5.00 | < 5.00 | 7.51 | 7.74 | – | CCOC(=O)c1nc(NCc2ccc(OC)c(Cl)c2)c2c3c(sc2n1)CN(C)CC3 [1-69, ethyl 5,6,7,8-tetrahydro-4-[(3-chloro-4-methoxy)benzylamino]-7-methylpyrido[4′,3′:4,5]thieno[2,3-d]pyrimidine-2-carboxylate]
20 | < 5.00 | < 5.00 | < 5.00 | < 5.00 | 8.74 | 8.13 | – | COc1ccc(CNc2nc(C(=O)Nc3ccccc3)nc3sc4c(c23)CCN(C)C4)cc1Cl [1-72]
21 | < 5.00 | < 5.00 | < 5.00 | 5.08 | 8.85 | 8.03 | – | COc1ccc(CNc2nc(C(=O)Nc3ccccc3)nc3sc4c(c23)CCN(C(C)C)C4)cc1Cl [1-75]
22 | < 5.00 | < 5.00 | < 5.00 | < 5.00 | 7.25 | 7.59 | 112 to 114 | COc1ccc(CNc2nc(C(=O)NC3CC3)nc3sc4c(c23)CCN(C(C)C)C4)cc1Cl [1-76]
23 | 6.17 | < 5.00 | < 5.00 | 5.29 | 7.80 | 7.74 | – | COc1ccc(CNc2nc(C(=O)NCc3ccccc3)nc3sc4c(c23)CCN(C)C4)cc1Cl [1-79]
24 | < 5.00 | 5.48 | < 5.00 | 5.39 | 7.28 | 7.60 | – | COC(=O)c1ccc(NC(=O)c2nc(NCc3ccc(OC)c(Cl)c3)c3c4c(sc3n2)CN(C)CC4)cc1 [1-80]
25 | 5.89 | 5.51 | < 5.00 | < 5.00 | 7.12 | – | – | COc1ccc(CNc2nc(C(N)=O)nc3sc4c(c23)CCN(C)C4)cc1Cl [1-83]
26 | < 5.00 | < 5.00 | 5.13 | 5.10 | 7.41 | 7.74 | – | CCOC(=O)Cc1nc(NCc2ccc(OC)c(Cl)c2)c2c3c(sc2n1)C(=O)N(C(C)C)CC3 [2-10]
27 | < 5.00 | < 5.00 | < 5.00 | < 5.00 | 9.41 | – | 210 to 211 | COc1ccc(CNc2nc(C(=O)Nc3ccccc3)nc3sc4c(c23)CCCC4)cc1Cl [3-2]
